{"source": "patent US20050020643A1", "about": "“Pyridinyl amides and compositions thereof for use as fungicides” (priority 2002, published 2005)", "assay_type_in_all_cases": "in vivo", "key": {"[1]": {"system": "Erysiphe graminis f. sp. tritici", "experiment": "Test A: preventive control of wheat powdery mildew on wheat seedlings", "parameters": "concentration or dose not given beside the values", "conditions": "sprayed day before inoculation, rated after 7 days, rate not given"}, "Puccinia recondita": {"system": "Puccinia recondita", "experiment": "Test B: preventive control of wheat leaf rust on wheat seedlings", "parameters": "concentration or dose not given beside the values", "conditions": "sprayed day before inoculation, rate not given"}, "Pyricularia oryzae": {"system": "Pyricularia oryzae", "conditions": "rice seedlings, sprayed day before inoculation; rate not given"}, "Phytophthora infestans [2]": {"system": "Phytophthora infestans", "conditions": "tomato (or potato) seedlings, sprayed day before inoculation; rate not given"}, "Plasmopara viticola [3]": {"system": "Plasmopara viticola", "experiment": "Test E: preventive control of grape downy mildew on grape seedlings", "conditions": "sprayed day before inoculation, rate not given"}, "Phytophthora infestans [4]": {"system": "Phytophthora infestans", "experiment": "whole plant or invertebrate", "conditions": "for pest or weed control at 100 g/ha: Phytophthora infestans, in Solanum tuberosum, 120 h, read-out: Test F disease control rating; for Test F disease control rating: 100 g/ha on potato seedlings, sprayed day after inoculation"}, "Plasmopara viticola [5]": {"system": "Plasmopara viticola", "experiment": "Test G: curative control of grape downy mildew on grape seedlings (sprayed after inoculation)", "conditions": "sprayed day after inoculation, rate not given"}}}
{"smiles": "CC(NC(=O)c1c(Cl)ccnc1Cl)c1ncc(Cl)cc1Cl", "note": "(racemic) [Compound 1, 2,4-Dichloro-N-[1-(3,5-dichloro-2-pyridinyl)ethyl]-3-pyridinecarboxamide]", "values": [{"measurement": "Test A disease control rating", "setting": "[1]", "value": 0, "unit": "%"}, {"measurement": "Test B disease control rating", "setting": "Puccinia recondita", "value": 38, "unit": "%"}, {"measurement": "Test C disease control rating", "setting": "Pyricularia oryzae", "value": 0, "unit": "%"}, {"measurement": "Test D disease control rating", "setting": "Phytophthora infestans [2]", "value": 100, "unit": "%"}, {"measurement": "Test E disease control rating", "setting": "Plasmopara viticola [3]", "value": 99, "unit": "%"}, {"measurement": "pest or weed control at 100 g/ha", "setting": "Phytophthora infestans [4]", "value": 87, "unit": "%"}, {"measurement": "Test G disease control rating", "setting": "Plasmopara viticola [5]", "value": 100, "unit": "%"}]}
{"smiles": "CC(NC(=O)c1c(Cl)ccnc1Cl)c1ncc(Br)cc1Cl", "note": "(racemic) [Compound 2, N-[1-(5-bromo-3-chloro-2-pyridinyl)ethyl]-2,4-dichloro-3-pyridinecarboxamide]", "values": [{"measurement": "Test A disease control rating", "setting": "[1]", "value": 0, "unit": "%"}, {"measurement": "Test B disease control rating", "setting": "Puccinia recondita", "value": 19, "unit": "%"}, {"measurement": "Test C disease control rating", "setting": "Pyricularia oryzae", "value": 0, "unit": "%"}, {"measurement": "Test D disease control rating", "setting": "Phytophthora infestans [2]", "value": 100, "unit": "%"}, {"measurement": "Test E disease control rating", "setting": "Plasmopara viticola [3]", "value": 100, "unit": "%"}, {"measurement": "pest or weed control at 100 g/ha", "setting": "Phytophthora infestans [4]", "value": 93, "unit": "%"}, {"measurement": "Test G disease control rating", "setting": "Plasmopara viticola [5]", "value": 100, "unit": "%"}]}
{"smiles": "O=C(NCc1ncc(Br)cc1Cl)c1c(Cl)ccnc1Cl", "note": "[Compound 9, N-[(5-bromo-3-chloro-2-pyridinyl)methyl]-2,4-dichloro-3-pyridinecarboxamide]", "values": [{"measurement": "Test A disease control rating", "setting": "[1]", "value": 0, "unit": "%"}, {"measurement": "Test B disease control rating", "setting": "Puccinia recondita", "value": 9, "unit": "%"}, {"measurement": "Test D disease control rating", "setting": "Phytophthora infestans [2]", "value": 100, "unit": "%"}, {"measurement": "Test E disease control rating", "setting": "Plasmopara viticola [3]", "value": 88, "unit": "%"}, {"measurement": "pest or weed control at 100 g/ha", "setting": "Phytophthora infestans [4]", "value": 99, "unit": "%"}, {"measurement": "Test G disease control rating", "setting": "Plasmopara viticola [5]", "value": 99, "unit": "%"}]}
{"smiles": "Cc1cnc(C(C)NC(=O)c2c(Cl)ccnc2Cl)c(C)c1", "note": "(centres unmarked) [Compound 10]", "values": [{"measurement": "Test A disease control rating", "setting": "[1]", "value": 0, "unit": "%"}, {"measurement": "Test B disease control rating", "setting": "Puccinia recondita", "value": 0, "unit": "%"}, {"measurement": "Test D disease control rating", "setting": "Phytophthora infestans [2]", "value": 99, "unit": "%"}, {"measurement": "Test E disease control rating", "setting": "Plasmopara viticola [3]", "value": 57, "unit": "%"}, {"measurement": "Test F disease control rating", "setting": "Phytophthora infestans [4]", "value": 0, "unit": "%"}, {"measurement": "Test G disease control rating", "setting": "Plasmopara viticola [5]", "value": 0, "unit": "%"}]}
{"smiles": "CC(NC(=O)c1c(Cl)ccnc1Cl)c1ncc(OC(F)F)cc1Cl", "note": "(centres unmarked) [Compound 11]", "values": [{"measurement": "Test A disease control rating", "setting": "[1]", "value": 0, "unit": "%"}, {"measurement": "Test B disease control rating", "setting": "Puccinia recondita", "value": 0, "unit": "%"}, {"measurement": "Test D disease control rating", "setting": "Phytophthora infestans [2]", "value": 100, "unit": "%"}, {"measurement": "Test E disease control rating", "setting": "Plasmopara viticola [3]", "value": 100, "unit": "%"}, {"measurement": "Test F disease control rating", "setting": "Phytophthora infestans [4]", "value": 93, "unit": "%"}, {"measurement": "Test G disease control rating", "setting": "Plasmopara viticola [5]", "value": 100, "unit": "%"}]}
{"smiles": "O=C(NCc1ncc(I)cc1Cl)c1c(Cl)ccnc1Cl", "note": "[Compound 12, N-[(3-chloro-5-iodo-2-pyridinyl)methyl]-2,4-dichloro-3-pyridinecarboxamide]", "values": [{"measurement": "Test A disease control rating", "setting": "[1]", "value": 0, "unit": "%"}, {"measurement": "Test B disease control rating", "setting": "Puccinia recondita", "value": 0, "unit": "%"}, {"measurement": "Test D disease control rating", "setting": "Phytophthora infestans [2]", "value": 100, "unit": "%"}, {"measurement": "Test E disease control rating", "setting": "Plasmopara viticola [3]", "value": 59, "unit": "%"}, {"measurement": "pest or weed control at 100 g/ha", "setting": "Phytophthora infestans [4]", "value": 98, "unit": "%"}, {"measurement": "Test G disease control rating", "setting": "Plasmopara viticola [5]", "value": 63, "unit": "%"}]}
{"smiles": "Cc1cc(Cl)c(C(=O)NC(C)c2ncc(Br)cc2Cl)c(Cl)n1", "note": "(centres unmarked) [Compound 13]", "values": [{"measurement": "Test A disease control rating", "setting": "[1]", "value": 0, "unit": "%"}, {"measurement": "Test B disease control rating", "setting": "Puccinia recondita", "value": 68, "unit": "%"}, {"measurement": "Test D disease control rating", "setting": "Phytophthora infestans [2]", "value": 100, "unit": "%"}, {"measurement": "Test E disease control rating", "setting": "Plasmopara viticola [3]", "value": 100, "unit": "%"}, {"measurement": "Test F disease control rating", "setting": "Phytophthora infestans [4]", "value": 100, "unit": "%"}, {"measurement": "Test G disease control rating", "setting": "Plasmopara viticola [5]", "value": 100, "unit": "%"}]}
{"smiles": "Cc1cc(Cl)c(C(=O)NCc2ncc(Br)cc2Cl)c(Cl)n1", "note": "[Compound 14, N-[(5-bromo-3-chloro-2-pyridinyl)methyl]-2,4-dichloro-6-methyl-3-pyridinecarboxamide]", "values": [{"measurement": "Test A disease control rating", "setting": "[1]", "value": 0, "unit": "%"}, {"measurement": "Test B disease control rating", "setting": "Puccinia recondita", "value": 41, "unit": "%"}, {"measurement": "Test D disease control rating", "setting": "Phytophthora infestans [2]", "value": 100, "unit": "%"}, {"measurement": "Test E disease control rating", "setting": "Plasmopara viticola [3]", "value": 100, "unit": "%"}, {"measurement": "pest or weed control at 100 g/ha", "setting": "Phytophthora infestans [4]", "value": 98, "unit": "%"}, {"measurement": "Test G disease control rating", "setting": "Plasmopara viticola [5]", "value": 100, "unit": "%"}]}
{"smiles": "Cc1cc(Cl)c(C(=O)NC(C)c2ncc(I)cc2Cl)c(Cl)n1", "note": "(centres unmarked) [Compound 15, N-[1-(3-chloro-5-iodo-2-pyridinyl)ethyl]-2,4-dichloro-6-methyl-3-pyridinecarboxamide]", "values": [{"measurement": "Test A disease control rating", "setting": "[1]", "value": 0, "unit": "%"}, {"measurement": "Test B disease control rating", "setting": "Puccinia recondita", "value": 0, "unit": "%"}, {"measurement": "Test D disease control rating", "setting": "Phytophthora infestans [2]", "value": 100, "unit": "%"}, {"measurement": "Test E disease control rating", "setting": "Plasmopara viticola [3]", "value": 100, "unit": "%"}, {"measurement": "pest or weed control at 100 g/ha", "setting": "Phytophthora infestans [4]", "value": 70, "unit": "%"}, {"measurement": "Test G disease control rating", "setting": "Plasmopara viticola [5]", "value": 100, "unit": "%"}]}
{"smiles": "Cc1cc(Cl)c(C(=O)NCc2ncc(I)cc2Cl)c(Cl)n1", "note": "[Compound 16, N-[(3-chloro-5-iodo-2-pyridinyl)methyl]-2,4-dichloro-6-methyl-3-pyridinecarboxamide]", "values": [{"measurement": "Test A disease control rating", "setting": "[1]", "value": 0, "unit": "%"}, {"measurement": "Test B disease control rating", "setting": "Puccinia recondita", "value": 32, "unit": "%"}, {"measurement": "Test D disease control rating", "setting": "Phytophthora infestans [2]", "value": 100, "unit": "%"}, {"measurement": "Test E disease control rating", "setting": "Plasmopara viticola [3]", "value": 100, "unit": "%"}, {"measurement": "pest or weed control at 100 g/ha", "setting": "Phytophthora infestans [4]", "value": 83, "unit": "%"}, {"measurement": "Test G disease control rating", "setting": "Plasmopara viticola [5]", "value": 95, "unit": "%"}]}
